The results in this text go back to EP1935887A1, “Heterocyclic substituted carbonyl derivatives and their use as dopamine D3 receptor ligands” (Aventis Pharmaceuticals Inc., priority 2001, dated 2002).

T1 sequence (P35462 whole entry): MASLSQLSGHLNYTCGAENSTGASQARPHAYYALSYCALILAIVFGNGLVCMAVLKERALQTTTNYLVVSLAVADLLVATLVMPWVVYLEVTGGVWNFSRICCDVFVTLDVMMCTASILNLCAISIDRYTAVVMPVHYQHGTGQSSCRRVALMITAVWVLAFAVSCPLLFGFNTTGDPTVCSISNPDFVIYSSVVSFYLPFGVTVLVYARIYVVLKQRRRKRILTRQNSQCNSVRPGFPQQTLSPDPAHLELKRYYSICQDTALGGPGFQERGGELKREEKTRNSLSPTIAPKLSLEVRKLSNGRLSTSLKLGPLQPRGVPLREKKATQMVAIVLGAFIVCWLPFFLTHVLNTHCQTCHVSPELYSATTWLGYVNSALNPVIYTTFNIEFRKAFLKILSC

The first assay addresses T1, Cloned Human Dopamine D3 Receptors (Homo sapiens, UniProt P35462).
T1 construct: expressed in transfected cells; membrane homogenate
In words: [N-Methyl-3H]Spiroperidol binding to cloned human dopamine D3 receptors. Conditions: D3 Ki (nM). The essentials:
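Membranes from CHO cells stably expressing human D3 receptor, homogenised in 10% DMSO and stored at -80°C. Binding uses [N-methyl-3H]spiroperidol in Tris buffer, pH 7.7.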
What is called Ki is a dissociation constant, usually derived from enzyme kinetics or from competition with a known ligand. Turning to `CN1CCCC1CCNC(=O)C1CC1CN1CCN(c2csc3cc(C(F)(F)F)ccc23)CC1` (centres unmarked) [compound 832217], the inhibitory constant (Ki) is 44.1 nM.

The compound `O=C(NC1CCN(Cc2ccc(F)c(F)c2)CC1)C1CC1CN1CCC(c2noc3ccsc23)CC1` (centres unmarked) [compound 832342] had a Ki of 0.077 nM.

In turn, `O=C(NC1CCN(Cc2cc(F)ccc2F)CC1)C1CC1CN1CCC(c2noc3ccsc23)CC1` (centres unmarked) [compound 832345] displayed a Ki of 1.46 nM.

The compound `O=C(NC1CCN(Cc2ccc(C(F)(F)F)cc2)CC1)C1CC1CN1CCC(c2noc3ccsc23)CC1` (centres unmarked) [compound 832349] had an inhibition constant Ki of 0.843 nM.

In turn, `O=C(C1CC1CN1CCC(c2noc3ccsc23)CC1)N1CCC(Nc2ccc(Cl)cc2)CC1` (centres unmarked) [compound 832395] showed a Ki of 30.2 nM.

`O=C(NC1CCN(Cc2cccc(F)c2)CC1)[C@@H]1C[C@H]1CN1CCC(c2noc3ccsc23)CC1` [compound 832727] came in with a Ki of 1.19 nM.

Consider `Cn1nc(C2CCN(C[C@@H]3C[C@H]3C(=O)NCCCN3CCCCC3)CC2)c2cccc(C(F)(F)F)c21` [compound 833090], for which the Ki is 41.8 nM.

`O=C([C@@H]1C[C@H]1CN1CCC(c2noc3ccsc23)CC1)N1CCN(Cc2ccc(Cl)cc2)CC1` [compound 833128] returned a Ki of 28.7 nM.

Staying with this assay, now noted: read-out: D3 Ki.
On to `O=C(C1CC1CN1CCC(c2noc3ccsc23)CC1)N1CCN(CCC2CCCCC2)CC1` (centres unmarked) [compound 832058], for which the inhibition constant (Ki) was 24.2 nM.

Regarding `CC1CCC(NC(=O)C2CC2CN2CCC(c3noc4c(C(F)(F)F)cccc34)CC2)CC1` (centres unmarked) [compound 832203], the Ki worked out at 4.76 nM.

Take `O=C(NCCCN1CCOCC1)[C@@H]1C[C@H]1CN1CCC(c2noc3c(C(F)(F)F)cccc23)CC1` [compound 832273]: the Ki was determined as 205 nM.

For `O=C(NC1CCNCC1)[C@@H]1C[C@H]1CN1CCN(c2csc3cc(C(F)(F)F)ccc23)CC1` [compound 832502], the Ki was 2.67 nM.

With `Cn1nc(C2CCN(C[C@@H]3C[C@H]3C(=O)NCCCn3ccnc3)CC2)c2cccc(C(F)(F)F)c21` [compound 832654, 2R-[4-(1-Methyl-7-trifluoromethyl-1 H-indazol-3-yl)-piperidin-1-ylmethyl]-1 R-cycloproanecarboxylic acid (3-imidazol-1-yl-propyl)-amide], the Ki was determined as 4.72 nM.

In the case of `O=C(NC1CCN(CC2CC2)CC1)[C@@H]1C[C@H]1CN1CCN(c2csc3cc(C(F)(F)F)ccc23)CC1` [compound 832734], the inhibition constant (Ki) is 9.85 nM.

In the case of `O=C(NC1CCN(Cc2cccc(F)c2)CC1)[C@@H]1C[C@H]1CN1CCN(c2csc3cc(C(F)(F)F)ccc23)CC1` [compound 832736], the Ki turned out to be 2.74 nM.

As for `O=C(NC1CCN(Cc2ccc(F)cc2)CC1)[C@@H]1C[C@H]1CN1CCN(c2csc3cc(C(F)(F)F)ccc23)CC1` [compound 832738], the Ki was 3.26 nM.

With `COc1ccc2c(c1)c(N1CCN(C[C@@H]3C[C@H]3C(=O)NCCCN3CCN(C)CC3)CC1)nn2C` [compound 833121], the Ki is 26.5 nM.

In the case of `O=C(NC1CCN(Cc2ccc(F)c(F)c2)CC1)[C@@H]1C[C@H]1CN1CCC(c2noc3ccsc23)CC1` [compound 833165], the Ki amounted to 1.07 nM.

`Cn1nc(C2CCN(C[C@@H]3C[C@H]3C(=O)N[C@H]3CC[C@H](C)CC3)CC2)c2cccc(C(F)(F)F)c21` [compound 833305]: the Ki is 8.81 nM.

As for `CC(C)(C)OC(=O)N1CCC(CNC(=O)C2CC2CN2CCN(c3csc4cc(C(F)(F)F)ccc34)CC2)C1` (centres unmarked) [compound 833625], the Ki came out at 22.2 nM.

As to `COc1ccc2c(c1)c(N1CCN(C[C@@H]3C[C@H]3C(=O)N3CCC(CCN4CCCC4)CC3)CC1)nn2C` [compound 833628], the Ki was found to be 95.8 nM.

The assay is the same for the next values; noted with them: the 16th table; read-out: D3 Ki.
In the case of `O=C(NCCCn1ccnc1)C1(CCN2CCN(c3csc4cc(C(F)(F)F)ccc34)CC2)CC1` [compound 832231, 1-{2-[4-(6-Trifluoromethyl-benzo[b]thiophen-3-yl)-piperazin-1-yl]-ethyl}-cyclopropanecarboxylic acid (3-imidazol-1-yl-propyl)-amide], the Ki stood at 6.93 nM.

Turning to `COc1c(F)ccc2c(C3CCN(CCC4(C(=O)N[C@H]5CC[C@H](C)CC5)CC4)CC3)noc12` [compound 833330], the Ki stood at 72.7 nM.
